Several values for one entry are separate records, joined by “and”; a condition that tells them apart may be missing. Equal values may be shown once. Marks after values point to notes of the source that are not given here.
Experiments:
[1] = test system: myocardial infarction model in rats; assay: Myocardial infarction model in rats (35 min CAO, reperfusion, infarct size by TTC); format: in vivo; details: rat; for IS (% AAR) / IS (% LV) / IS (% Vehicle IS): 24 h reperfusion, mean ± S.E.M.; for reduction of infarct size compared to control: p < 0.001
Method: In all groups of rats, the left anterior descending coronary artery was occluded during 35 min and released for reperfusion as previously described. For the dose range testing, the vehicle (IL30) or TRO40303 solution in IL30 (stock solution diluted in IL30 to administer ~1.5 mL/kg in each group) at increasing doses (0.3, 1, 3 and 10 mg/kg) were administered as a 5 min infusion through the jugular vein starting 10 min before coronary artery reperfusion (CAR). To evaluate the therapeutic window, the vehicle or TRO40303 at 1 mg/kg were also administered either 10 min before coronary artery occlusion (CAO) or 10 min after CAR. Infarct size was determined by triphenyltetrazolium chloride (TTC) staining and was calculated as a percentage of the area at risk (AAR), 24 h after reperfusion. For the dose range experiment, infarct size was expressed for all doses as a percent of the vehicle group infarct size.

[2] = Phase I trial pharmacokinetics, single i.v. ascending doses; format: in vivo, human
Method: A randomized, double-blind, placebo controlled study was performed to investigate the safety, tolerability and pharmacokinetics of single i.v. ascending doses of TRO40303 in healthy male and post-menopausal female subjects. The choice of the dose and flow rate escalation process is explained in the Result section. Seventy-two healthy volunteers were randomized, with 18 receiving a placebo and 54 an active liposomal formulation containing 20 mg/mL TRO40303 at final doses ranging from 0.5, 1, 2, 3.5, 6, 10 to 13 mg/kg with escalating flow rates from 0.04 mL/min to 35 mL/min. Within each group, 3 or 6 subjects received TRO40303 and 1 or 2 subjects received the same volume of placebo. The sample size was based on the number of doses and flow rates to be investigated. The 6 verum/2 placebo ratio per group is widely used in single ascending dose studies and provides adequate safety and pharmacokinetic information. The 3 verum/1 placebo ratio used in the last groups was chosen only to explore additional flow rates at previously studied doses.
Venous blood samples (5 mL) were collected for determination of TRO40303 concentrations in plasma at pre-dose, end of infusion, then 5 min, 15 min, 30 min, 1 h, 2 h, 4 h, 8 h, 12 h, 16 h, 24 h, 48 h, 72 h and 96 h post end of infusion into heparin–lithium Vacutainer tubes. The blood samples were gently inverted then centrifuged in a refrigerated centrifuge (+4°C) within 30 min after sampling at 1500 g for ca 10 min. The resulting plasma was frozen in two separate labelled polypropylene tubes at –20 ± 5°C until assaying.
For the quantifying TRO40303 levels in human plasma samples, the same method, GLP validated, was used and the analysis was performed at Bertin Pharma (Orleans, France). Analysis was carried out on 1200 Series (Agilent) and Series 200 (Perkin Elmer) systems interfaced to an API 4000 (AB Sciex) MS detector. Calculations were carried out with Analyst 1.4.1 and 1.5.1 (AB Sciex) software.

[3] = 0.3 mg/kg in IL30 i.v. 10 min before CAR
[4] = 1 mg/kg in IL30 i.v. 10 min before CAR
[5] = 3 mg/kg in IL30 i.v. 10 min before CAR
[6] = 10 mg/kg in IL30 i.v. 10 min before CAR
[7] = human, single i.v., liposomes, 0.5 mg/kg, n = 4
[8] = human, single i.v., liposomes, 0.5 mg/kg, n = 6
[9] = human, single i.v., liposomes, 1 mg/kg, n = 6
[10] = human, single i.v., liposomes, 2 mg/kg, n = 6
[11] = human, single i.v., liposomes, 3.5 mg/kg, n = 9
[12] = human, single i.v., liposomes, 6 mg/kg, n = 11
[13] = human, single i.v., liposomes, 6 mg/kg, n = 12
[14] = human, single i.v., liposomes, 10 mg/kg, n = 9
[15] = human, single i.v., liposomes, 13 mg/kg, n = 6
[16] = human, single i.v., liposomes, over all doses
[17] = liposomes in human, IL30 in rats

CC(C)CCC[C@@H](C)[C@H]1CC[C@H]2[C@@H]3CC/C(=N\O)[C@](C)(CCCO)[C@H]3CC[C@]12C [TRO40303, 3,5-seco-4-nor-cholestan-5-one oxime-3-ol]
IS (% AAR) [1, 3]: 26 ± 4 % AAR
IS (% LV) [1, 3]: 11 ± 2 % LV
IS (% Vehicle IS) [1, 3]: 77 ± 15 % Vehicle IS
infarct size compared to vehicle ([1]; 0.3 mg/kg in IL30 i.v. bolus 10 min before reperfusion, 24 h after reperfusion): smaller but not significantly different
infarct size compared to vehicle ([1]; 1 mg/kg in IL30 10 min after the onset of CAR): unchanged
reduction of infarct size compared to vehicle ([1]; 1 mg/kg in IL30 10 min before 35 min CAO): 55%
IS (% AAR) [1, 4]: 19 ± 2 % AAR
IS (% LV) [1, 4]: 7 ± 1 % LV
IS (% Vehicle IS) [1, 4]: 56 ± 6 % Vehicle IS
reduction of infarct size compared to vehicle ([1]; 1 mg/kg in IL30 i.v. bolus 10 min before reperfusion, p < 0.01): 40%
IS (% AAR) [1, 5]: 15 ± 2 % AAR
IS (% LV) [1, 5]: 6 ± 1 % LV
IS (% Vehicle IS) [1, 5]: 44 ± 7 % Vehicle IS
reduction of infarct size compared to control ([1]; 3 mg/kg in IL30 i.v. bolus 10 min before reperfusion, 3 mg/kg): 50% and ~ 50%
IS (% AAR) [1, 6]: 25 ± 6 % AAR
IS (% LV) [1, 6]: 7 ± 2 % LV
IS (% Vehicle IS) [1, 6]: 45 ± 10 % Vehicle IS
reduction of infarct size compared to control ([1]; 10 mg/kg in IL30 i.v. bolus 10 min before reperfusion, 10 mg/kg): 50% and ~ 50%
dose proportionality of Cmax and AUC(0-∞) ([2]; human, from 0.5 to 6 mg/kg): linear
hyper-proportionality of Cmax and AUC(0-∞) ([2]; human, from 6 to 13 mg/kg): ~ 1.5 fold
AUC(0-∞) Mean [2, 7]: 15.5* μg.h/mL
AUC(0-∞) Min-max [2, 7]: 9130 to 20900 ng·h/mL
C5min Min-max [2, 8]: 1.59 to 3.92 µg/mL
CL Mean [2, 8]: 0.598 mL/min/kg
CL Min-max [2, 8]: 0.399 to 0.912 mL/min/kg
Cmax Mean [2, 8]: 3320 ng/mL
Cmax Min-max [2, 8]: 2310 to 4850 ng/mL
Terminal t1/2 Mean [2, 8]: 29.5 h
Terminal t1/2 Min-max [2, 8]: 27.0 to 31.5 h
Vz Mean [2, 8]: 1.54 L/kg
Vz Min-max [2, 8]: 0.00103 to 0.00249 L/kg
C5min Mean ([2]; human, single i.v., liposomes, 0.5 mg/kg, n = 6, 5 min post end of infusion): 2.58 µg/mL
AUC(0-∞) Mean [2, 9]: 34.5 µg·h/mL
AUC(0-∞) Min-max [2, 9]: 21000 to 43000 ng·h/mL
C5min Min-max [2, 9]: 5.98 to 12.5 µg/mL
CL Mean [2, 9]: 0.509 mL/min/kg
CL Min-max [2, 9]: 0.388 to 0.792 mL/min/kg
Cmax Mean [2, 9]: 10300 ng/mL
Cmax Min-max [2, 9]: 6060 to 14100 ng/mL
Terminal t1/2 Mean [2, 9]: 25.1 h
Terminal t1/2 Min-max [2, 9]: 22.9 to 26.8 h
Vz Mean [2, 9]: 1.11 L/kg
Vz Min-max [2, 9]: 0.000899 to 0.00177 L/kg
C5min Mean ([2]; human, single i.v., liposomes, 1 mg/kg, n = 6, 5 min post end of infusion): 9.26 µg/mL
C5min Min-max ([2]; human, single i.v., liposomes, 2 mg/kg, n = 5): 16.7 to 26.8 µg/mL
C5min Mean ([2]; human, single i.v., liposomes, 2 mg/kg, n = 5, 5 min post end of infusion): 23.6** μg/mL
AUC(0-∞) Mean [2, 10]: 68.6 µg·h/mL
AUC(0-∞) Min-max [2, 10]: 50700 to 81500 ng·h/mL
CL Mean [2, 10]: 0.499 mL/min/kg
CL Min-max [2, 10]: 0.409 to 0.657 mL/min/kg
Cmax Mean [2, 10]: 23100 ng/mL
Cmax Min-max [2, 10]: 16000 to 31100 ng/mL
Terminal t1/2 Mean [2, 10]: 26.4 h
Terminal t1/2 Min-max [2, 10]: 24.3 to 28.7 h
Vz Mean [2, 10]: 1.14 L/kg
Vz Min-max [2, 10]: 0.00091 to 0.00152 L/kg
AUC(0-∞) Mean [2, 11]: 109 µg·h/mL
AUC(0-∞) Min-max [2, 11]: 81000 to 163000 ng·h/mL
C5min Min-max [2, 11]: 37.1 to 68.7 µg/mL
CL Mean [2, 11]: 0.560 mL/min/kg
CL Min-max [2, 11]: 0.357 to 0.721 mL/min/kg
Cmax Mean [2, 11]: 51700 ng/mL
Cmax Min-max [2, 11]: 37700 to 68700 ng/mL
Terminal t1/2 Mean [2, 11]: 25.1 h
Terminal t1/2 Min-max [2, 11]: 23.1 to 27.7 h
Vz Mean [2, 11]: 1.22 L/kg
Vz Min-max [2, 11]: 0.000723 to 0.00152 L/kg
C5min Mean ([2]; human, single i.v., liposomes, 3.5 mg/kg, n = 9, 5 min post end of infusion): 50.2 µg/mL
AUC(0-∞) Mean [2, 12]: 229*** μg.h/mL
AUC(0-∞) Min-max [2, 12]: 147000 to 307000 ng·h/mL
C5min Min-max [2, 13]: 51.6 to 266 µg/mL
CL Mean [2, 13]: 0.460 mL/min/kg
CL Min-max [2, 13]: 0.326 to 0.680 mL/min/kg
Cmax Mean [2, 13]: 118000 ng/mL
Cmax Min-max [2, 13]: 59500 to 266000 ng/mL
Terminal t1/2 Mean [2, 13]: 24.4 h
Terminal t1/2 Min-max [2, 13]: 21.2 to 30.0 h
Vz Mean [2, 13]: 0.964 L/kg
Vz Min-max [2, 13]: 0.000611 to 0.00134 L/kg
C5min Mean ([2]; human, single i.v., liposomes, 6 mg/kg, n = 12, 5 min post end of infusion): 112 µg/mL
AUC(0-∞) Mean [2, 14]: 408 µg·h/mL
AUC(0-∞) Min-max [2, 14]: 303000 to 501000 ng·h/mL
C5min Min-max [2, 14]: 120 to 279 µg/mL
CL Mean [2, 14]: 0.422 mL/min/kg
CL Min-max [2, 14]: 0.332 to 0.549 mL/min/kg
Cmax Mean [2, 14]: 194000 ng/mL
Cmax Min-max [2, 14]: 130000 to 279000 ng/mL
Terminal t1/2 Mean [2, 14]: 25.3 h
Terminal t1/2 Min-max [2, 14]: 19.3 to 30.2 h
Vz Mean [2, 14]: 0.929 L/kg
Vz Min-max [2, 14]: 0.000624 to 0.00144 L/kg
C5min Mean ([2]; human, single i.v., liposomes, 10 mg/kg, n = 9, 5 min post end of infusion): 193 µg/mL
AUC(0-∞) Mean [2, 15]: 651 µg·h/mL
AUC(0-∞) Min-max [2, 15]: 468000 to 814000 ng·h/mL
C5min Min-max [2, 15]: 148 to 371 µg/mL
CL Mean [2, 15]: 0.347 mL/min/kg
CL Min-max [2, 15]: 0.266 to 0.463 mL/min/kg
Cmax Mean [2, 15]: 259000 ng/mL
Cmax Min-max [2, 15]: 167000 to 371000 ng/mL
Terminal t1/2 Mean [2, 15]: 24.4 h
Terminal t1/2 Min-max [2, 15]: 20.1 to 28.6 h
Vz Mean [2, 15]: 0.723 L/kg
Vz Min-max [2, 15]: 0.000599 to 0.000989 L/kg
C5min Mean ([2]; human, single i.v., liposomes, 13 mg/kg, n = 6, 5 min post end of infusion): 248 µg/mL
Vz [2, 16]: 1.1 L/kg
mean penultimate thalf (when at least 80% of drug was eliminated) [2, 16]: 4 h
mean terminal thalf [2, 16]: 25 h
AUC(0-∞) in humans compared to rats for the same dose [2, 17]: ~ 7 fold
C5min in humans compared to rats for the same dose [2, 17]: ~ 2 fold

Source: paper PMC3923730 (Journal of Translational Medicine, 2014)
